For this assay, the target named is T1, human mGlu5 (Homo sapiens, UniProt P41594).
T1 construct: expressed in transfected cells
Briefly: Calcium mobilization assay in human mGlu5-HEK293A cells (NAM, EC80 glutamate). It counts as cell-based. The settings on record: for %Glumin: efficacy of the NAM to reduce an EC80 response of glutamate. (A change in cytosolic calcium serves as a functional read-out for many receptors and channels.)

[1] abbreviates: human mGlu5-HEK293A cells, EC80 fixed concentration of glutamate, n = 2 in triplicate.
[2] abbreviates: human mGlu5-HEK293A cells, EC80 fixed concentration of glutamate, n = 2 in triplicate, read-out: IC50.

Where two headings read alike, the source gives them in different places.

T1 sequence (P41594 21-1212): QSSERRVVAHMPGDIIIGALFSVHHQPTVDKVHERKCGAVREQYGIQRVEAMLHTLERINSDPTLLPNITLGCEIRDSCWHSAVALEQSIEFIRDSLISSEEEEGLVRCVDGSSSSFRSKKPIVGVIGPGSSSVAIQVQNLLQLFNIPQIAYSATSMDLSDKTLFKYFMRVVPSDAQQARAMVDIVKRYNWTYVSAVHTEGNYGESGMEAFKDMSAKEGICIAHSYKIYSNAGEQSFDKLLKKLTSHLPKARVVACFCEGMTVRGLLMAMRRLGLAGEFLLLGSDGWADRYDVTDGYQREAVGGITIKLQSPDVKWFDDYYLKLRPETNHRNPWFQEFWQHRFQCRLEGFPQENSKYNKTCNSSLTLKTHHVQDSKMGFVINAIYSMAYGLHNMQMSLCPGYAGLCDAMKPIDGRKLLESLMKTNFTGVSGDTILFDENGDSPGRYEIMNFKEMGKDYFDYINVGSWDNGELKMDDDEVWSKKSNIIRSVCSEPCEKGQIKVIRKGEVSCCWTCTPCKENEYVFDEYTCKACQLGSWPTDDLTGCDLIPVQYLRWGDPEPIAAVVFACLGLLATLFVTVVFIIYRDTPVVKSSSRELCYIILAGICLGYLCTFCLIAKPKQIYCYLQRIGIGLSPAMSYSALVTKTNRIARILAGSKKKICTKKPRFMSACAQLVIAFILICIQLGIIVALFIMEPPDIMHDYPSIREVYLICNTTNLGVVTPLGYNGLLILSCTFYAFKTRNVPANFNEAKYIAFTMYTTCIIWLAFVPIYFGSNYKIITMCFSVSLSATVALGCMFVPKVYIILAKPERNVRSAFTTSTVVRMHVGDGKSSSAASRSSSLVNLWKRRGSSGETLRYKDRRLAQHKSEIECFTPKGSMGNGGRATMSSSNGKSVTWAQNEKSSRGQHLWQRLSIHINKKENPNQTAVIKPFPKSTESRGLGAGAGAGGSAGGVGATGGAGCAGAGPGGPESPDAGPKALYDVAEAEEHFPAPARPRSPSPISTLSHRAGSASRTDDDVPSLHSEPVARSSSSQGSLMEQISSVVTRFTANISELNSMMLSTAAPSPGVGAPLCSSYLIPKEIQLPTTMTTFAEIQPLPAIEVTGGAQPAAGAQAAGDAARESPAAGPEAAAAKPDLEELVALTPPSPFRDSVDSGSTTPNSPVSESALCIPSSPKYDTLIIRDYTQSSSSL

Broadly, the pIC50 is the IC50 on a negative log10 scale, so that one unit is a factor of ten. A word on the IC50: it is the concentration at which inhibition is half-maximal. Regarding `O=C(Nc1cccc(F)n1)c1cc(O[C@@H]2CCOC2)c2sccc2n1` [19aC], for the setting “human mGlu5-HEK293A cells”, the “%Glumin” value is listed as 6%. The pIC50 under setting [1] is recorded as 5.98. Moreover, the IC50 runs as follows: under setting [2], 1.07 µM; (in μM, read-out: hmGlu5 IC50) 1.1 µM.
For `Cc1cccc(NC(=O)c2cc(O[C@@H]3CCOC3)c3sccc3n2)c1` [19aE], the “%Glumin” value (human mGlu5-HEK293A cells) amounted to 2%. Under setting [1], the pIC50 amounted to 6.08. For the same molecule, under setting [2], the IC50 came out at 0.845 µM.
For `Cc1nc(NC(=O)c2cc(O[C@@H]3CCOC3)c3sccc3n2)ccc1F` [19aG] the same measures were 66%, < 5 and > 10 µM.
For `CCc1csc(NC(=O)c2cc(O[C@@H]3CCOC3)c3sccc3n2)n1` [19aH] the same measures were 6%, 5.62 and 2.56 µM.
For `O=C(Nc1nccs1)c1cc(O[C@@H]2CCOC2)c2sccc2n1` [19aK], in that order: 3%, 5.75 and 1.83 µM.
As to `O=C(Nc1nc(C(F)F)cs1)c1cc(O[C@@H]2CCOC2)c2sccc2n1` [19aM], the “%Glumin” value (human mGlu5-HEK293A cells) is recorded as 18%. The pIC50 under setting [1] turned out to be 6.50. The IC50 under setting [2] amounted to 0.32 µM.
For `N#Cc1csc(NC(=O)c2cc(O[C@@H]3CCOC3)c3sccc3n2)n1` [19aN] the same measures were 3%, 6.27 and 0.559 µM.
For `Cc1coc(NC(=O)c2cc(O[C@@H]3CCOC3)c3sccc3n2)n1` [19aP], in that order: 50%, < 5 and > 10 µM.
On to `Cc1nsc(NC(=O)c2cc(O[C@@H]3CCOC3)c3sccc3n2)n1` [19aQ], for which the “%Glumin” value (human mGlu5-HEK293A cells) stood at 73%. Also, the pIC50 under setting [1] is reported as < 5. Under setting [2], the IC50 is > 10 µM.
For `Cc1csc(NC(=O)c2cc(O[C@@H]3CCOC3)c3sc(C)cc3n2)n1` [19cA] the same measures were 2%, 6.45 and 0.357 µM.
In the case of `Cc1cc2nc(C(=O)Nc3ccc(F)cn3)cc(O[C@@H]3CCOC3)c2s1` [19cB], the “IC50 (nM)” value under setting [1] was “inactive”.
For `Cn1ccc2c(O[C@@H]3CCOC3)cc(C(=O)Nc3ccc(F)cn3)nc21` [19dB], the “%Glumin” value (human mGlu5-HEK293A cells) was determined as 12%. Under setting [1], the negative-log IC50 (pIC50) amounted to 5.98. Besides, the IC50 under setting [2] was found to be 1.06 µM.
As to `Cn1ccc2nc(C(=O)Nc3ccc(F)cn3)cc(O[C@@H]3CCOC3)c21` [19eB], the “%Glumin” value (human mGlu5-HEK293A cells) came to 46%. Also, the pIC50 under setting [1] was < 5. In addition, the IC50 under setting [2] was > 10 µM.
In the case of `Cc1csc(NC(=O)c2cc(O[C@@H]3CCOC3)c3ccccc3n2)n1` [19fA], the “%Glumin” value (human mGlu5-HEK293A cells) came to 6%. In addition, the pIC50 under setting [1] is given as 6.74. The IC50 under setting [2] was 0.192 µM.
For `O=C(Nc1ccc(F)cn1)c1cc(O[C@@H]2CCOC2)c2ccccc2n1` [19fB], in that order: 15%, 5.59 and 2.65 µM.
For `Cc1csc(NC(=O)c2cc(OC3CC(C)(C)OC3(C)C)c3sccc3n2)n1` (centres unmarked) [22b], the “IC50 (nM)” value under setting [1] was “inactive”.
In the case of `Cc1csc(NC(=O)c2cc(OC3CCOCC3)c3sccc3n2)n1` [22d], the “%Glumin” value (human mGlu5-HEK293A cells) worked out at 25%. Further, the pIC50 under setting [1] was < 5. The IC50 under setting [2] is > 10 µM.
Take `Cc1csc(NC(=O)c2cc(OC3COC3)c3sccc3n2)n1` [22e]: the “%Glumin” value (human mGlu5-HEK293A cells) was found to be 2%. Also, under setting [1], the pIC50 is 6.76. Besides, under setting [2], the IC50 was determined as 0.185 µM.
For `CO[C@@H](C)COc1cc(C(=O)Nc2nc(C)cs2)nc2ccsc12` [22g] the same measures were 12%, 6.17 and 0.682 µM.
In the case of `Cc1csc(NC(=O)c2cc(O[C@@H]3CCOC3)cnn2)n1` [27aA], the “IC50 (nM)” value under setting [1] was “inactive”.
`O=C(Nc1ccc(F)cn1)c1cncc(O[C@@H]2CCOC2)c1` [27bB]: the “IC50 (nM)” value under setting [1] is “inactive”.

For the origin of these results see publication PMC12067350, “Discovery of Thieno[3,2‑b]pyridine-5-carboxamide and 2,3-Difluorobenzamide Negative Allosteric Modulators of Metabotropic Glutamate Receptor Subtype 5” (ACS Medicinal Chemistry Letters, 2025).
